This note sets out measurements from patent publication US10358469B2, “Methods and pharmaceutical compositions for the treatment of cancer” (INSERM (INSTITUT NATIONAL DE LA SANTÉ ET DE LA RECHERCHE …, priority 2014, dated 2019).

The subject of experiment [1] is human triple-negative breast cancer xenograft PDX02. Kind of experiment: Triple-negative breast cancer patient-derived xenograft PDX02 in nude mice. It counts as in vivo. Particulars: 2.4 mg/kg i.p., 7 daily injections, FIG. 8B. The protocol: (§1) Breast cancer fragments were obtained from patients at the time of surgery, with informed written patient consent. After imaging-guided human tumor biopsies had been performed, fragments of 30 to 60 mm^3 were subcutaneously grafted in 6-week-old NMRI-nude mice (Centre-Elevage-Janvier, France), under xylasin (10 mg/kg)/ketamin (100 mg/kg) anesthesia. Mice were maintained in specific pathogen-free animal housing (Institut Universitaire d'Hematologie) and received estrogen (17 mg/mL) diluted in drinking water. Xenografts were characterized and subsequently subcutaneously transplanted from mouse to mouse. […] Two human triple-negative breast cancer (HBC) xenografts models were used in our experiments (PDX01 and PDX02). […] Following transplantation (n=6 per model) tumor growth was assessed by measuring tumor size in two dimension using a Vernier caliper. Tumor volume was calculated using the formula [3.14×long axis×short axis×short axis]/6 (Kjonniksen et al., 1989). […] Mice were weighted and the tumor size was measured by a caliper and recorded daily. Fourteen days after beginning of the treatment mice were sacrificed. The tumors, kidney, lungs, heart, liver, pancreas and spleen were taken and fixed. Paraffin-embedded sections were prepared and stained with hematoxylin and eosin for histological analysis.

Experiment [2] relates to human triple-negative breast cancer xenograft PDX01. Kind of experiment: Triple-negative breast cancer patient-derived xenograft PDX01 in nude mice. It counts as in vivo. Particulars: 2.4 mg/kg i.p., 7 daily injections, FIG. 8B. Here is the method:
as §1
In general terms: Xenograft models place foreign cells or tissue in a host animal.

The test system of experiment [3] is Karpas 1106, SU-DHL-5, SeAx and HUT-78 cells. Put plainly: Cell viability (MTS) of hematologic cancer cell lines under low serum. It counts as cell-based. The settings on record: increasing concentrations, 24 hours, low serum conditions (0.5-5%), FIG. 1A. The protocol:
(A) Karpas 1106, SU-DHL-5, SeAx and HUT-78 cells were plated at a densities of 6×10^3 in 96 well plates (100 μL total volume per well) and treated for 24 hours in a 37° C. incubator (5% CO2) with increasing concentrations of the Antp-AAC-11-LZ (363-399). 20 μL MTS reagent was then added to each well and plates were incubated for an additional 4 hours. Absorbance was measured at 490 nm using a 96-well plate reader. The extent to which the Antp-AAC-11-LZ (363-399) peptide inhibited cell proliferation was calculated as a percentage of the absorbance in each well containing the Antp-AAC-11-LZ (363-399) peptide relative to wells containing no peptide (negative control). […]
Viability of cells cultured in the 96-well culture plates was assessed by measuring mitochondrial dehydrogenase activity, using the colorimetric CellTiter 96® AQueous One Solution Cell Proliferation Assay (Promega), according to the manufacturer′ instructions. […] The color can then be quantified using a simple colorimetric assay. The results are read on a multiwall scanning spectrophotometer (ELISA reader).
The inventors evaluated the capacity of the Antp-AAC-11-LZ (363-399) peptide to induce cell death a panel of hematologic and solid tumor cell lines, both P53 positive and P53 negative, derived from different tissues of origin, under low serum conditions (0.5-5%). […]

For “Ac-RQIKIWFKKQNRRMKWKKAKLNAEKLKDFKIRLQYFARGLQVYIRQLRLALQGKT-NH2 [Antp-AAC-11-LZ (363-399)]”, the “tumor size versus vehicle” value in experiment [1] and in experiment [2] was “significantly smaller tumors” throughout. In experiment [3], the “loss of cellular viability” value is recorded as “drastic loss of cellular viability”.
